This note sets out measurements from ChEMBL document CHEMBL1128880, “Design and synthesis of heterocyclic analogues of mycophenolic acid as potential chemotherapeutic agents” (Bioorg Med Chem Lett, 1995).

Broadly, the IC50 is the midpoint of a concentration-inhibition curve. A lower IC50 goes with greater potency.

The test system of one test is HT-29. Kind of test: In vitro antitumor activity against HT-29 human colon adenocarcinoma cells. It counts as functional, cell-based.
Another test deals with A549. Description: In vitro antitumor activity against A549 human NSCLC lung carcinoma cells. The format is functional, cell-based.
Test [1] has as its system CCRF-CEM. Kind of test: Cytotoxic activity against HIV infected T4 lymphocytes (CEM cell line). It counts as functional, cell-based. The conditions noted are these: Homo sapiens.
The test system of a further test is MCF7. Description: In vitro antitumor activity against MCF-7 human breast adenocarcinoma cells. The format is functional, cell-based.
In the next test the test system is PSN1. Description: In vitro antitumor activity against PSN-1 human pancreatic carcinoma cells. The format is functional, cell-based.
In a further test the test system is L1210. Kind of test: In vitro antitumor activity against L1210 murine lymphocytic leukemia cells. It counts as functional, cell-based. The conditions noted are these: Mus musculus.
Test [2] has as its system CCRF-CEM. Kind of test: Antitumor activity against HIV infected T4 lymphocytes (CEM cell line) at 0.4 uM concentration. The format is functional, Homo sapiens.
In test [3] the test system is CCRF-CEM. Description: Cytotoxic activity against HIV uninfected T4 lymphocytes (CEM cell line). The format is functional, cell-based. The conditions noted are these: Homo sapiens.

In the case of `C/C(=C\Cc1ccc(C(N)=O)[nH]1)CCC(=O)O`, the IC50 in the test on HT-29 is greater than 100 µM; with A549, greater than 100 µM; in the test on CCRF-CEM [1] it was 730 µM; with MCF7, greater than 100 µM; with PSN1, greater than 100 µM; in the test on L1210 it was greater than 100 µM.

Turning to `C/C(=C\Cc1nc(C(N)=O)cs1)CCC(=O)O`, the IC50 in the test on HT-29, with A549, in the test with MCF7, with PSN1 and in the test on L1210 was greater than 100 µM each time.

As to `C/C(=C\Cn1cnc2c(O)ncnc21)CCC(=O)O`, the IC50 with HT-29, in the test with A549, with MCF7, with PSN1 and in the test with L1210 was greater than 100 µM each time.

Regarding `C/C(=C\Cn1cnc2c(Cl)ncnc21)CCC(=O)O`, the IC50 in the test with HT-29, in the test on A549, with MCF7, with PSN1 and in the test on L1210 was greater than 100 µM each time.

As to `C/C(=C\Cn1cnc(C(N)=O)n1)CCC(=O)O`, the IC50 with HT-29, in the test with A549, with MCF7, in the test on PSN1 and in the test on L1210 was greater than 100 µM in each case.

`COC(=O)c1ccc(C/C=C(\C)CCC(=O)O)[nH]1`: the IC50 in the test with HT-29 is greater than 100 µM; in the test on A549 it was greater than 100 µM; in the test with CCRF-CEM [1], 360 µM; in the test on MCF7, greater than 100 µM; in the test on PSN1, greater than 100 µM; in the test on L1210, greater than 100 µM.

For `C/C(=C\Cn1cnc(C(=O)O)n1)CCC(=O)O`, the IC50 in the test on HT-29, in the test on A549, with MCF7, in the test on PSN1 and in the test with L1210 was greater than 100 µM throughout.

For `C/C(=C\Cc1cccc(C(N)=O)n1)CCC(=O)O`, the IC50 with HT-29, in the test with A549, in the test with MCF7, in the test with PSN1 and in the test with L1210 was greater than 100 µM in each case.

Turning to `COc1c(C)c2c(c(O)c1C/C=C(\C)CCC(=O)O)C(=O)OC2` [MYCOPHENOLIC ACID], the IC50 in the test on HT-29 was 0.9 µM; in the test with A549, 0.4 µM; in the test on MCF7 it was 0.5 µM; in the test with PSN1 it was 0.7 µM; in the test on CCRF-CEM [3], 0.9 µM; with L1210, less than 0.2 µM. Further, the Protection in the test with CCRF-CEM [2] turned out to be 20%.
